Like-named read-outs stand apart in the source and are kept apart here.
What was measured:
HLA-A*24:02 = HLA-A*24:02 (Homo sapiens, UniProt P04439, D101N/D140Y/D185E/E176V/E190D/F33S/G103R/G107R/I119L/I121M/I306V/K335N/L105A/L180Q/L300P/N151K/N90K/Q86E/Q94H/R106L/R138H/R89G/T104I/T345S/V100E/W191G/Y123F); assay: HLA stabilization assay using RMA-S-A2402 cells; assay type: binding; conditions: RMA-S-A2402 cells, Suppl. Fig. 3b (for Fig. 4a, 4b); peptide(-) 14.8, 26 °C (Maximum) 32.7
[1] = system: HLA-A*24:02-restricted CD8+ T cells; assay type: cell-based, human
[2] = convalescent donor C2, 45.290 weeks since PCR-confirmed diagnosis, […], peptide-pulsed C1R-A2402
[3] = convalescent donor C3, 2.430 weeks since PCR-confirmed diagnosis, […], peptide-pulsed C1R-A2402
[4] = convalescent donor C4, 35.000 weeks since PCR-confirmed diagnosis, […], peptide-pulsed C1R-A2402
[5] = convalescent donor C5, 41.430 weeks since PCR-confirmed diagnosis, […], peptide-pulsed C1R-A2402
[6] = convalescent donor C6, 20.000 weeks since PCR-confirmed diagnosis, […], peptide-pulsed C1R-A2402
[7] = convalescent donor C7, 21.710 weeks since PCR-confirmed diagnosis, […], peptide-pulsed C1R-A2402
[8] = convalescent donor C8, 47.860 weeks since PCR-confirmed diagnosis, […], peptide-pulsed C1R-A2402
[9] = convalescent donor C9, 21.860 weeks since PCR-confirmed diagnosis, […], peptide-pulsed C1R-A2402
[10] = convalescent donor C10, 24.570 weeks since PCR-confirmed diagnosis, […], peptide-pulsed C1R-A2402
[11] = convalescent donor C11, 24.290 weeks since PCR-confirmed diagnosis, […], peptide-pulsed C1R-A2402
[12] = vaccinated donor V1, 19.000 weeks since 2nd dose, […], C1R-A2402 pre-pulsed with 1 μM peptide
[13] = vaccinated donor V2, 9.570 weeks since 2nd dose, […], C1R-A2402 pre-pulsed with 1 μM peptide
[14] = vaccinated donor V3, 8.860 weeks since 2nd dose, […], C1R-A2402 pre-pulsed with 1 μM peptide
[15] = vaccinated donor V4, 10.430 weeks since 2nd dose, […], C1R-A2402 pre-pulsed with 1 μM peptide
[16] = vaccinated donor V5, 10.570 weeks since 2nd dose, […], C1R-A2402 pre-pulsed with 1 μM peptide
[17] = vaccinated donor V6, 9.570 weeks since 2nd dose, […], C1R-A2402 pre-pulsed with 1 μM peptide
[18] = vaccinated donor V7, 10.140 weeks since 2nd dose, […], C1R-A2402 pre-pulsed with 1 μM peptide
[19] = vaccinated donor V8, 9.860 weeks since 2nd dose, […], C1R-A2402 pre-pulsed with 1 μM peptide
[20] = vaccinated donor V9, 20.570 weeks since 2nd dose, […], C1R-A2402 pre-pulsed with 1 μM peptide
[21] = vaccinated donor V10, 2.000 weeks since 2nd dose, […], C1R-A2402 pre-pulsed with 1 μM peptide
[22] = vaccinated donor V11, 1.430 weeks since 2nd dose, […], C1R-A2402 pre-pulsed with 1 μM peptide
[23] = vaccinated donor V12, 1.000 weeks since 2nd dose, […], C1R-A2402 pre-pulsed with 1 μM peptide
[24] = vaccinated donor V13, 9.000 weeks since 2nd dose, […], C1R-A2402 pre-pulsed with 1 μM peptide
[25] = vaccinated donor V14, 2.000 weeks since 2nd dose, […], C1R-A2402 pre-pulsed with 1 μM peptide
[26] = vaccinated donor V15, 6.860 weeks since 2nd dose, […], C1R-A2402 pre-pulsed with 1 μM peptide
[27] = vaccinated donor V16, 8.860 weeks since 2nd dose, […], C1R-A2402 pre-pulsed with 1 μM peptide
[28] = vaccinated donor V17, 4.140 weeks since 2nd dose, […], C1R-A2402 pre-pulsed with 1 μM peptide

Row | Sequence | MFI, HLA-A2402 (APC), representative staining (HLA-A*24:02) | IFNg-producing cells among CD8 T cells (%) [1, 2] | IFNg-producing cells among CD8 T cells (%) [1, 3] | IFNg-producing cells among CD8 T cells (%) [1, 4] | IFNg-producing cells among CD8 T cells (%) [1, 5] | IFNg-producing cells among CD8 T cells (%) [1, 6] | IFNg-producing cells among CD8 T cells (%) [1, 7] | IFNg-producing cells among CD8 T cells (%) [1, 8] | IFNg-producing cells among CD8 T cells (%) [1, 9] | IFNg-producing cells among CD8 T cells (%) [1, 10] | IFNg-producing cells among CD8 T cells (%) [1, 11] | IFNg-producing cells among CD8 T cells (%) [1, 12] | IFNg-producing cells among CD8 T cells (%) [1, 13] | IFNg-producing cells among CD8 T cells (%) [1, 14] | IFNg-producing cells among CD8 T cells (%) [1, 15] | IFNg-producing cells among CD8 T cells (%) [1, 16] | IFNg-producing cells among CD8 T cells (%) [1, 17] | IFNg-producing cells among CD8 T cells (%) [1, 18] | IFNg-producing cells among CD8 T cells (%) [1, 19] | IFNg-producing cells among CD8 T cells (%) [1, 20] | also measured
1 | AYSNNSIAI [S-AI9] | 36.2 | 0.000% | 0.037% | 0.000% | 0.000% | 0.000% | 0.180% | 0.160% | 0.510% | 0.000% | 0.000% | 0.918% | 0% | 0% | 0% | 0.54% | 0.014% | 0% | 0% | 0.488% | IFNg-producing cells among CD8 T cells (%) [1, 21]: 0%; IFNg-producing cells among CD8 T cells (%) [1, 22]: 0.134%; IFNg-producing cells among CD8 T cells (%) [1, 23]: 0%; IFNg-producing cells among CD8 T cells (%) [1, 24]: 0.166%; IFNg-producing cells among CD8 T cells (%) [1, 25]: 0%; IFNg-producing cells among CD8 T cells (%) [1, 26]: 0%; IFNg-producing cells among CD8 T cells (%) [1, 27]: 0%; IFNg-producing cells among CD8 T cells (%) [1, 28]: 0%
2 | EYVSQPFLM [S-EM9] | 38.7 | 0.455% | 0.097% | 0.355% | 0.063% | 0.000% | 0.160% | 0.480% | 0.000% | 0.650% | 0.000% | 0.75% | 0.88% | 0.063% | 0% | 0.271% | 0.032% | 0% | 0% | 0% | IFNg-producing cells among CD8 T cells (%) [1, 21]: 0.23%; IFNg-producing cells among CD8 T cells (%) [1, 22]: 0.827%; IFNg-producing cells among CD8 T cells (%) [1, 23]: 0%; IFNg-producing cells among CD8 T cells (%) [1, 24]: 0.062%; IFNg-producing cells among CD8 T cells (%) [1, 25]: 0%; IFNg-producing cells among CD8 T cells (%) [1, 26]: 0%; IFNg-producing cells among CD8 T cells (%) [1, 27]: 0.187%; IFNg-producing cells among CD8 T cells (%) [1, 28]: 0%
3 | GYLQPRTFLL [S-GL10] | 15.2 | 0.450% | 0.140% | 1.440% | 0.000% | 0.260% | 0.000% | 0.120% | 0.130% | 0.000% | 0.000% | 0% | 0% | 0.487% | 0.245% | 0.041% | 0% | 0% | 0.018% | 0.481% | Freq of responder (%) ([1]; of 17 vaccinated HLA-A*24:02+ individuals (Fig. 4b)): 5.9%; Resp: number of responders (individuals with epitope-specific CD8+ T cells) ([1]; of 17 vaccinated HLA-A*24:02+ individuals, […], 1 μM peptide): one; IFNg-producing cells among CD8 T cells (%) [1, 21]: 0.057%; IFNg-producing cells among CD8 T cells (%) [1, 22]: 0.244%; IFNg-producing cells among CD8 T cells (%) [1, 23]: 1.194%; IFNg-producing cells among CD8 T cells (%) [1, 24]: 0%; IFNg-producing cells among CD8 T cells (%) [1, 25]: 0.774%; IFNg-producing cells among CD8 T cells (%) [1, 26]: 0.234%; IFNg-producing cells among CD8 T cells (%) [1, 27]: 0%; IFNg-producing cells among CD8 T cells (%) [1, 28]: 0%
